{"source": "patent EP2712863B1", "about": "“Novel inhibitors of bacterial biofilms and related methods” (Sequoia Sciences, Inc., priority 2012, dated 2014)", "key": {"P. aeruginosa": {"test_system": "P. aeruginosa", "experiment": "Biofilm growth assay (spreading biofilm on semi-solid agar)", "format": "cell-based", "settings": "Pseudomonas aeruginosa", "text": "(§1) \"Biofilm Growth Assay\" refers to an assay performed on semi-solid agar surface where the bacteria collectively move out from an inoculation point. To those skilled in the art, the act of bacteria collectively moving out from an inoculation point on a semi-solid surface may be referred to as swarming or a spreading biofilm. (Anderson, et al Microbiology, 2003, 149, 37-46; Daniels, et al. FEMS Microbiology Reviews, 2004, 28, 261-289). The procedure to perform this assay is described in detail in the Examples. This type of surface motility by bacteria has been reported in the literature by those skilled in the art.\n(§2) The biofilm growth assay was carried out to measure swarming or biofilm spreading on semi-solid agar media in round plates (for example, 100 × 15 mm), also referred to as Petri dishes. For E. coli, the plates contained LB medium with 0.6% agar and 0.5% glucose. P. aeruginosa plates were made with M8 agar supplemented with 0.2% glucose, 100 µM CaCl2, 1 mM MgSO4, and 0.5% Casamino acids. The agar plates of this assay consisted of 0.4% to 0.7% agar (Bacto or Noble agar), although other media may also be used as described in the literature and known to those skilled in the art. Test compounds at the desired concentration were added to the cooled, autoclaved media. Portions of the media were then poured into the plates (20 mL/plate), and the plates allowed to dry at room temperature for approximately 3 to 4 hours. Alternatively, however, plates may be dried in a laminar flow hood for approximately fifteen to twenty minutes. Overnight cultures were grown in a 37°C shaker in LB (E. coli) or TSB (P. aeruginosa). Plates were inoculated by placing 5 µL of the appropriate overnight culture in the centers of the plates. The plates then were incubated overnight at 37°C. The area of the zone of spreading bacteria was then measured and replicates are averaged. Percent inhibition was calculated as 100 × (area without compound - area with compound)/(area without compound). An active compound was considered that which reduces the area of the spreading biofilm compared to negative controls by greater than or equal to 85%. The values shown in Table 1 are the concentrations of compounds (µg/ml) tested in the biofilm growth assay that reduce the area of the spreading biofilm compared to negative controls by greater than or equal to 85% unless noted differently in Table 1. A > (\"greater than\" symbol) as used in Table 1 is well understood to those skilled in the art as an indication that the listed concentration was not effective at this concentration.\n(§3) All of the compounds shown in Tables 2, 3, 4, and 5, below, were prepared semi-synthetically from oleanolic acid, except for Compounds 2 and 3. Compound 2 was prepared from ursolic acid. Compound 3 was prepared from hederagenin, but could also be prepared from an oleanolic acid analog with a hydroxyl at C23 or C24. These compounds were tested in the spreading biofilm assay according to the methods detailed in Example I, above. The values shown in Tables 2, 3, 4, and 5 are the concentrations of compounds tested in the biofilm growth assay that reduce the area of the spreading biofilm compared to negative controls by greater than or equal to 85%. Table 2. Compound 1 and its Analogs and their inhibitory concentrations in the biofilm growth assay as detailed in Example I, above"}, "E. coli": {"test_system": "E. coli", "experiment": "Biofilm growth assay (spreading biofilm on semi-solid agar)", "format": "cell-based", "settings": "Escherichia coli", "text": "as §1, §2, §3"}, "[1]": {"settings": "Table 4, concentration that reduces the area of the spreading biofilm by >= 85%, read-out: P. aeruginosa"}, "[2]": {"settings": "Table 4, concentration that reduces the area of the spreading biofilm by >= 85%, read-out: E. coli"}, "[3]": {"settings": "Table 3, concentration that reduces the area of the spreading biofilm by >= 85%, read-out: P. aeruginosa"}, "[4]": {"settings": "Table 3, concentration that reduces the area of the spreading biofilm by >= 85%, read-out: E. coli"}, "[5]": {"settings": "Table 1, concentration that reduces the area of the spreading biofilm vs negative controls by >= 85%, > means not effective at this concentration, read-out: P. aeruginosa"}, "[6]": {"settings": "Table 1, concentration that reduces the area of the spreading biofilm vs negative controls by >= 85%, > means not effective at this concentration, read-out: E. coli"}}, "note": "Where two headings read alike, the source gives them in different places."}
{"compound": "CC1(C)CC[C@]2(c3cc(N)[nH]n3)CC[C@]3(C)C(=CCC4[C@@]5(C)Cc6c(n[nH]c6N)C(C)(C)C5CC[C@]43C)C2C1", "note": "(stereo partly drawn) [Compound 60, (4aS,6aS,6bR,13aR)-4a-(5-Amino-1 H-pyrazol-3-yl)-2,2,6a,6b,9,9,13a-heptamethyl-2,3,4,4a,5,6,6a,6b,7,8,8a,9,11,13,13a,13b,14,15b-octadecahydro-1H-chryseno[1,2-f]indazol-12-amine]", "values": [{"measurement": "IC85", "setting": "P. aeruginosa; [1]", "result": 0.5, "unit": "µg/mL"}, {"measurement": "IC85", "setting": "E. coli; [2]", "result": 1, "unit": "µg/mL"}]}
{"compound": "CC1(C)CC[C@]2(C(=O)O)CC[C@]3(C)C(=C(c4cccc5[nH]ccc45)CC4[C@@]5(C)Cc6c(n[nH]c6N)C(C)(C)C5CC[C@]43C)C2C1", "note": "(stereo partly drawn) [Compound 48, (4aS,6aS,6bR,13aR)-12-Amino-15-(1H-indol-4-yl)-2,2,6a,6b,9,9,13a-heptamethyl-2,3,4,4a,5,6,6a,6b,7,8,8a,9,11,13,13a,13b,14,15b-octadecahydro-1H-chryseno[1,2-f]indazole-4a-carboxylic acid]", "values": [{"measurement": "IC85", "setting": "P. aeruginosa; [3]", "result": 0.5, "unit": "µg/mL"}, {"measurement": "IC85", "setting": "E. coli; [4]", "result": 1, "unit": "µg/mL"}]}
{"compound": "CC1(C)CC[C@]2(C(=O)O)CC[C@]3(C)C(=CCC4[C@@]5(C)Cc6c(n[nH]c6Br)C(C)(C)C5CC[C@]43C)C2C1", "note": "(stereo partly drawn) [H]", "values": [{"measurement": "IC85", "setting": "P. aeruginosa; [5]", "result": 8, "unit": "µg/mL"}, {"measurement": "IC85", "setting": "E. coli; [6]", "result": "> 8", "unit": "µg/mL"}]}
{"compound": "CC1(C)CC[C@]2(C(=O)Nc3nnn[nH]3)CC[C@]3(C)C(=CCC4[C@@]5(C)Cc6c(n[nH]c6N)C(C)(C)C5CC[C@]43C)C2C1", "note": "(stereo partly drawn) [Compound 61, (4aS,6aS,6bR,13aR)-12-Amino-2,2,6a,6b,9,9,13a-heptamethyl-N-(1H-tetrazol-5-yl)-2,3,4,4a,5,6,6a,6b,7,8,8a,9,11,13,13a,13b,14,15b-octadecahydro-1H-chryseno[1,2-f]indazole-4a-carboxamide]", "values": [{"measurement": "IC85", "setting": "P. aeruginosa; read-out: P. aeruginosa (µg/ml)", "result": 0.5, "unit": "µg/mL"}, {"measurement": "IC85", "setting": "E. coli; read-out: E. coli (µg/ml)", "result": 0.5, "unit": "µg/mL"}]}
{"compound": "COC(=O)[C@]12CCC(C)(C)CC1C1=CCC3[C@@]4(C)CC[C@H](O)C(C)(C)C4CC[C@@]3(C)[C@]1(C)CC2", "note": "(stereo partly drawn) [Oleanolic acid methyl ester, reference compound]", "values": [{"measurement": "IC85", "setting": "P. aeruginosa; [5]", "result": "> 16", "unit": "µg/mL"}, {"measurement": "IC85", "setting": "E. coli; [6]", "result": "> 16", "unit": "µg/mL"}]}
{"compound": "Cc1nnc(S)n1NC(=O)[C@]12CCC(C)(C)CC1C1=CCC3[C@@]4(C)Cc5c(n[nH]c5N)C(C)(C)C4CC[C@@]3(C)[C@]1(C)CC2", "note": "(stereo partly drawn) [Compound 77, (4aS,6aS,6bR,13aR)-12-Amino-N-(3-mercapto-5-methyl-4H-1,2,4-triazol-4-yl)-2,2,6a,6b,9,9,13a-heptamethyl-2,3,4,4a,5,6,6a,6b,7,8,8a,9,11,13,13a,13b,14,15b-octadecahydro-1H-chryseno[1,2-f]indazole-4a-carboxamide]", "values": [{"measurement": "IC85", "setting": "P. aeruginosa; [1]", "result": 1, "unit": "µg/mL"}, {"measurement": "IC85", "setting": "E. coli; [2]", "result": 2, "unit": "µg/mL"}]}
{"compound": "CC1(C)CC[C@]2(C(=O)O)CC[C@]3(C)C(=C(c4cccc5c4CCNC5)CC4[C@@]5(C)Cc6c(n[nH]c6N)C(C)(C)C5CC[C@]43C)C2C1", "note": "(stereo partly drawn) [Compound 47, (4aS,6aS,6bR,13aR)-12-Amino-2,2,6a,6b,9,9,13a-heptamethyl-15-(1,2,3,4-tetrahydroisoquinolin-5-yl)-2,3,4,4a,5,6,6a,6b,7,8,8a,9,11,13,13a,13b,14,15b-octadecahydro-1H-chryseno[1,2-f]indazole-4a-carboxylic acid]", "values": [{"measurement": "IC85", "setting": "P. aeruginosa; [3]", "result": 0.5, "unit": "µg/mL"}, {"measurement": "IC85", "setting": "E. coli; [4]", "result": 1, "unit": "µg/mL"}]}
{"compound": "CC1(C)CC[C@]2(C(=O)O)CC[C@]3(C)C(=C(c4coc(CN5CCOCC5)c4)CC4[C@@]5(C)Cc6c(n[nH]c6N)C(C)(C)[C@@H]5CC[C@]43C)[C@@H]2C1", "note": "(stereo partly drawn) [Compound 40, (4aS,6aS,6bR,8aR,13aR,15bS)-12-Amino-2,2,6a,6b,9,9,13a-heptamethyl-15-(5-(morpholinomethyl)furan-3-yl)-2,3,4,4a,5,6,6a,6b,7,8,8a,9,11,13,13a,13b,14,15b-octadecahydro-1H-chryseno[1,2-f]indazole-4a-carboxylic acid]", "values": [{"measurement": "IC85", "setting": "P. aeruginosa; [3]", "result": 0.5, "unit": "µg/mL"}, {"measurement": "IC85", "setting": "E. coli; [4]", "result": 2, "unit": "µg/mL"}]}
{"compound": "CC1(C)CC[C@]2(c3n[nH]c(O)c3CCNC(N)=O)CC[C@]3(C)C(=CCC4[C@@]5(C)Cc6c(n[nH]c6N)C(C)(C)C5CC[C@]43C)C2C1", "note": "(stereo partly drawn) [Compound 87, 1-(2-(3-((4aS,6aS,6bR,13aR)-12-Amino-2,2,6a,6b,9,9,13a-heptamethyl-2,3,4,4a,5,6,6a,6b,7,8,8a,9,11,13,13a,13b,14,15b-octadecahydro-1H-chryseno[1,2-f]indazol-4a-yl)-5-hydroxy-1H-pyrazol-4-yl)ethyl)urea]", "values": [{"measurement": "IC85", "setting": "P. aeruginosa; [1]", "result": 0.5, "unit": "µg/mL"}, {"measurement": "IC85", "setting": "E. coli; [2]", "result": 1, "unit": "µg/mL"}]}
